{"source": "paper PMC6510909", "about": "(Investigational New Drugs, 2018)", "key": {"[1]": {"test_system": "patients with previously untreated metastatic PDAC", "conditions": "for Overall safety and tolerability: in combination with nab-P + G, up to 200 mg twice daily", "from_the_text": "Patients were ≥ 18 years of age with previously untreated metastatic PDAC (measurable per Response Evaluation Criteria in Solid Tumors [RECIST] v 1.1); and an Eastern Cooperative Oncology Group (ECOG) performance status ≤1 and adequate hematologic, renal, and hepatic function. […] All patients provided written informed consent prior to enrollment.\nScreening occurred within 21 days before the first MMB dose and included medical history and prior/concomitant medication review, physical exam and assessments of vital signs, ECOG performance status, pregnancy test (females), laboratory assessment, adverse event (AE) assessment, and staging CT or MRI. MMB was given orally once or twice daily as per the assigned dosing cohort: Cohort 1–100 mg MMB once daily; Cohort 2–150 mg MMB once daily; Cohort 3–200 mg MMB once daily; Cohort 4–150 mg MMB twice daily; and Cohort 5–200 mg MMB twice daily. […] Each dose cohort consisted of 3 patients, unless a dose-limiting toxicity (DLT) was experienced during the first 28 days of treatment. If one DLT was experienced, 3 additional patients were enrolled in the dose cohort. If a second DLT was experienced in the same cohort, MTD was considered to be exceeded. Dose escalation continued from Dose Level 2 to 3 to 4 to 5 if no DLT occurred in 3 evaluable subjects or < 2 DLTs occurred in 6 evaluable patients within each dose level.\nPrimary endpoint was incidence of DLT(s) based on the Common Terminology Criteria for Adverse Events (CTCAE) version 4.03. Secondary endpoints were overall survival (OS) (defined as the time interval from the first dose of MMB to death from any cause; patients lost to follow-up or who survived until the end of study were censored at the last date that they were known to be alive), progression-free survival (PFS) (defined as the time interval from the first dose of MMB to the earlier of the first documentation of definitive disease progression or death from any cause), overall response rate (ORR) (proportion of patients who achieved a complete or partial response [CR or PR, respectively] during MMB therapy), and duration of response (time from CR or PR to definitive disease progression or death from any cause).\nPlanned enrollment was up to 30 patients based on the standard 3 + 3 design. The efficacy analyses were conducted in all enrolled patients. Safety analyses were conducted in all enrolled patients who received ≥1 dose of study treatment. Descriptive summary statistics were provided for patient characteristics and safety variables. Kaplan-Meier estimates were used for OS, PFS, duration of response, and their 95% confidence intervals (CIs). The ORR was summarized for each dose level cohort with corresponding 2-sided 95% exact CIs based on the Clopper-Pearson method."}, "[2]": {"test_system": "TBK1", "experiment": "TBK1 inhibition estimated from plasma Cmax", "parameters": "species or system human"}, "[3]": {"conditions": "all cohorts, MMB + nab-P + G, n = 25"}, "[4]": {"conditions": "all cohorts, MMB + nab-P + G, AE consistent with JAK1/2 inhibition"}}, "note": "Where two headings read alike, the source gives them in different places."}
{"smiles": "N#CCNC(=O)c1ccc(-c2ccnc(Nc3ccc(N4CCOCC4)cc3)n2)cc1", "note": "[MMB, momelotinib]", "values": [{"measurement": "Dose-limiting toxicity (Grade 3 diarrhea), patients", "setting": "[1]; 100 mg MMB once daily + nab-P + G", "result": 1, "unit": "patient"}, {"measurement": "Dose-limiting toxicity (Grade 3 diarrhea), patients", "setting": "[1]; 200 mg MMB once daily + nab-P + G", "result": 1, "unit": "patient"}, {"measurement": "Maximum tolerated dose (MTD)", "setting": "[1]; MMB up to 200 mg twice daily + nab-P + G", "result": "not reached"}, {"measurement": "Deaths due to TEAEs", "setting": "[1]; [3]", "result": "no deaths"}, {"measurement": "Grade 3 MMB-related AE deep vein thrombosis", "setting": "[1]; [3]", "result": 4.0, "unit": "%"}, {"measurement": "Grade 3 MMB-related AE dehydration", "setting": "[1]; [3]", "result": 4.0, "unit": "%"}, {"measurement": "Grade 3 MMB-related AE diarrhea", "setting": "[1]; [3]", "result": 12.0, "unit": "%"}, {"measurement": "Grade 3 MMB-related AE fatigue", "setting": "[1]; [3]", "result": 4.0, "unit": "%"}, {"measurement": "Grade 3 MMB-related AE febrile neutropenia", "setting": "[1]; [3]", "result": 4.0, "unit": "%"}, {"measurement": "Grade 3 MMB-related AE generalized edema", "setting": "[1]; [3]", "result": 4.0, "unit": "%"}, {"measurement": "Grade 3 MMB-related AE hypertension", "setting": "[1]; [3]", "result": 4.0, "unit": "%"}, {"measurement": "Grade 3 MMB-related AE malaise", "setting": "[1]; [3]", "result": 4.0, "unit": "%"}, {"measurement": "Grade 3 MMB-related AE nephrolithiasis", "setting": "[1]; [3]", "result": 4.0, "unit": "%"}, {"measurement": "Grade 3 MMB-related AE peripheral edema", "setting": "[1]; [3]", "result": 4.0, "unit": "%"}, {"measurement": "Grade 3 MMB-related AE peripheral sensory motor neuropathy", "setting": "[1]; [3]", "result": 8.0, "unit": "%"}, {"measurement": "Grade 3 MMB-related AE polyneuropathy", "setting": "[1]; [3]", "result": 4.0, "unit": "%"}, {"measurement": "Grade 3 MMB-related AE respiratory distress", "setting": "[1]; [3]", "result": 4.0, "unit": "%"}, {"measurement": "Grade 3 MMB-related AE thrombocytopenia", "setting": "[1]; [3]", "result": 8.0, "unit": "%"}, {"measurement": "Grade 3 MMB-related AE tremor", "setting": "[1]; [3]", "result": 4.0, "unit": "%"}, {"measurement": "Grade 3 or 4 AEs considered related to MMB", "setting": "[1]; [3]", "result": 44, "unit": "%"}, {"measurement": "Grade 3 or 4 TEAEs, patients", "setting": "[1]; [3]", "result": 88, "unit": "%"}, {"measurement": "Grade 3 or 4 neutropenia, patients", "setting": "[1]; [3]", "result": 32, "unit": "%"}, {"measurement": "Grade 4 MMB-related event embolic stroke", "setting": "[1]; [3]", "result": 4.0, "unit": "%"}, {"measurement": "Grade 4 MMB-related event increased blood uric acid", "setting": "[1]; [3]", "result": 4.0, "unit": "%"}, {"measurement": "Grade 4 MMB-related event neutropenia", "setting": "[1]; [3]", "result": 4.0, "unit": "%"}, {"measurement": "Neutropenia Grade 3, patients", "setting": "[1]; [3]", "result": 16, "unit": "%"}, {"measurement": "Neutropenia Grade 4, patients", "setting": "[1]; [3]", "result": 16, "unit": "%"}, {"measurement": "Patients with at least one treatment-emergent AE (TEAE)", "setting": "[1]; [3]", "result": "All patients"}, {"measurement": "Peripheral neuropathy attributed by investigators as related to the drug, patients", "setting": "[1]; [3]", "result": 16, "unit": "%"}, {"measurement": "Peripheral neuropathy leading to discontinuation of MMB, patients", "setting": "[1]; [3]", "result": 8, "unit": "%"}, {"measurement": "Peripheral sensory neuropathy attributed by investigators as related to the drug, patients", "setting": "[1]; [3]", "result": 24, "unit": "%"}, {"measurement": "Pneumonia Grade 3, patients", "setting": "[1]; [3]", "result": 24, "unit": "%"}, {"measurement": "SAEs considered related to MMB, patients", "setting": "[1]; [3]", "result": 24, "unit": "%"}, {"measurement": "Serious AEs (SAEs), patients", "setting": "[1]; [3]", "result": 72, "unit": "%"}, {"measurement": "TEAE abdominal pain, patients", "setting": "[1]; [3]", "result": 44, "unit": "%"}, {"measurement": "TEAE alopecia, patients", "setting": "[1]; [3]", "result": 40, "unit": "%"}, {"measurement": "TEAE anemia, patients", "setting": "[1]; [3]", "result": 68, "unit": "%"}, {"measurement": "TEAE constipation, patients", "setting": "[1]; [3]", "result": 52, "unit": "%"}, {"measurement": "TEAE decreased appetite, patients", "setting": "[1]; [3]", "result": 40, "unit": "%"}, {"measurement": "TEAE diarrhea, patients", "setting": "[1]; [3]", "result": 64, "unit": "%"}, {"measurement": "TEAE dysgeusia, patients", "setting": "[1]; [3]", "result": 40, "unit": "%"}, {"measurement": "TEAE fatigue, patients", "setting": "[1]; [3]", "result": 80, "unit": "%"}, {"measurement": "TEAE hypertension, patients", "setting": "[1]; [3]", "result": 36, "unit": "%"}, {"measurement": "TEAE nausea, patients", "setting": "[1]; [3]", "result": 76, "unit": "%"}, {"measurement": "TEAE peripheral edema, patients", "setting": "[1]; [3]", "result": 48, "unit": "%"}, {"measurement": "TEAE peripheral neuropathy, patients", "setting": "[1]; [3]", "result": 36, "unit": "%"}, {"measurement": "TEAE peripheral sensory neuropathy, patients", "setting": "[1]; [3]", "result": 36, "unit": "%"}, {"measurement": "TEAE pyrexia, patients", "setting": "[1]; [3]", "result": 56, "unit": "%"}, {"measurement": "TEAE vomiting, patients", "setting": "[1]; [3]", "result": 52, "unit": "%"}, {"measurement": "Peripheral neuropathy, predefined AE of interest, patients", "setting": "[1]; all cohorts, MMB + nab-P + G, n = 25, higher incidence at the two highest dose levels", "result": 60, "unit": "%"}, {"measurement": "AE neutropenia, patients", "setting": "[1]; [4]", "result": 32, "unit": "%"}, {"measurement": "AE thrombocytopenia, patients", "setting": "[1]; [4]", "result": 20, "unit": "%"}, {"measurement": "Overall safety and tolerability", "setting": "[1]", "result": "safe and well tolerated"}, {"measurement": "Overall safety and tolerability", "setting": "[1]; listed as Momelotinib", "result": "well tolerated"}, {"measurement": "Maximum administered dose (MAD)", "setting": "[1]; twice daily, + nab-P + G", "result": 200, "unit": "mg"}, {"measurement": "Estimated transient maximal TBK1 inhibition", "setting": "[2]; based on the Cmax of approximately 300 ng/mL", "result": "EC70"}, {"measurement": "MMB concentrations relative to TBK1 inhibition", "setting": "[2]; pharmacokinetic analyses", "result": "too low"}]}
